Earlier results in patent US5122371A (priority 1991, dated 1992).

What was measured:
[1] = tested on: Na+ K+-ATPase enzyme; settings: known property of cardiac glycosides
[2] = in vivo

Compound | Effect on Na+ K+-ATPase enzyme activity [1] | half-life [2]
C[C@H]1O[C@@H](O[C@H]2[C@@H](O)C[C@H](O[C@H]3[C@@H](O)C[C@H](O[C@H]4CC[C@@]5(C)[C@H](CC[C@@H]6[C@@H]5C[C@@H](O)[C@]5(C)[C@@H](C7=CC(=O)OC7)CC[C@]65O)C4)O[C@@H]3C)O[C@@H]2C)C[C@H](O)[C@@H]1O [digoxin] | inhibit | 
C[C@@H]1O[C@@H](O[C@H]2C[C@@H](O)[C@]3(CO)[C@H]4[C@H](O)C[C@]5(C)[C@@H](C6=CC(=O)OC6)CC[C@]5(O)[C@@H]4CC[C@]3(O)C2)[C@H](O)[C@H](O)[C@H]1O [ouabain] | inhibit | 21 h
digitalis | inhibit | 
